From ChEMBL document CHEMBL5512655, “Discovery of indolylacryloyl-derived oxacins as novel potential broad-spectrum antibacterial candidates” (Eur J Med Chem, 2024)
In brackets after ≈: the same amount, converted by molar mass.

What was measured:
Assay type in all cases: functional
[1] = tested on: Pseudomonas aeruginosa; assay: Antibacterial activity against Pseudomonas aeruginosa assessed as inhibition of bacterial growth measured after 24 hrs incubation
[2] = tested on: Pseudomonas aeruginosa; assay: Antibacterial activity against Pseudomonas aeruginosa ATCC 27853 assessed as inhibition of bacterial growth measured after 24 hrs incubation
[3] = tested on: Enterococcus faecalis; assay: Antibacterial activity against Enterococcus faecalis assessed as inhibition of bacterial growth measured after 24 hrs incubation
[4] = tested on: Staphylococcus aureus; assay: Antibacterial activity against methicillin-resistant Staphylococcus aureus N315 assessed as inhibition of bacterial growth measured after 24 hrs incubation
[5] = tested on: Escherichia coli; assay: Antibacterial activity against Escherichia coli ATCC 25922 assessed as inhibition of bacterial growth measured after 24 hrs incubation
[6] = tested on: Staphylococcus aureus; assay: Antibacterial activity against Staphylococcus aureus ATCC 29213 assessed as inhibition of bacterial growth measured after 24 hrs incubation
[7] = tested on: Klebsiella pneumoniae; assay: Antibacterial activity against Klebsiella pneumonia assessed as inhibition of bacterial growth measured after 24 hrs incubation
[8] = tested on: Staphylococcus aureus; assay: Antibacterial activity against Staphylococcus aureus assessed as inhibition of bacterial growth measured after 24 hrs incubation
[9] = tested on: Escherichia coli; assay: Antibacterial activity against Escherichia coli assessed as inhibition of bacterial growth measured after 24 hrs incubation
[10] = tested on: Staphylococcus aureus; assay: Antibacterial activity against Staphylococcus aureus ATCC 25923 assessed as inhibition of bacterial growth measured after 24 hrs incubation
[11] = tested on: Acinetobacter baumannii; assay: Antibacterial activity against Acinetobacter baumannii assessed as inhibition of bacterial growth measured after 24 hrs incubation

SMILES	MIC [1]	MIC [2]	MIC [3]	MIC [4]	MIC [5]	MIC [6]	MIC [7]	MIC [8]	MIC [9]	MIC [10]	MIC [11]
CCn1cc(C(=O)O)c(=O)c2cc(F)c(N3CCN(C(=O)/C(C#N)=C/c4cn(CC(N)=O)c5ccccc45)CC3)cc21	8 µg/mL (≈ 14 µM)	1 µg/mL (≈ 1.75 µM)	16 µg/mL (≈ 28 µM)	0.25 µg/mL (≈ 0.438 µM)	0.25 µg/mL (≈ 0.438 µM)	16 µg/mL (≈ 28 µM)	1 µg/mL (≈ 1.75 µM)	32 µg/mL (≈ 56.1 µM)	0.5 µg/mL (≈ 0.876 µM)	8 µg/mL (≈ 14 µM)	8 µg/mL (≈ 14 µM)
C#CCn1cc(/C=C(\C#N)C(=O)N2CCN(c3cc4c(cc3F)c(=O)c(C(=O)O)cn4CC)CC2)c2ccccc21	0.5 µg/mL (≈ 0.906 µM)	4 µg/mL (≈ 7.25 µM)	0.5 µg/mL (≈ 0.906 µM)	0.25 µg/mL (≈ 0.453 µM)	0.5 µg/mL (≈ 0.906 µM)	0.5 µg/mL (≈ 0.906 µM)	0.25 µg/mL (≈ 0.453 µM)	0.25 µg/mL (≈ 0.453 µM)	1 µg/mL (≈ 1.81 µM)	0.25 µg/mL (≈ 0.453 µM)	0.25 µg/mL (≈ 0.453 µM)
CCn1cc(C(=O)O)c(=O)c2cc(F)c(N3CCN(C(=O)/C(C#N)=C/c4cn(Cc5cccc(Cl)c5)c5ccccc45)CC3)cc21	32 µg/mL (≈ 50.1 µM)	0.25 µg/mL (≈ 0.392 µM)	8 µg/mL (≈ 12.5 µM)	1 µg/mL (≈ 1.57 µM)	8 µg/mL (≈ 12.5 µM)	4 µg/mL (≈ 6.27 µM)	0.5 µg/mL (≈ 0.784 µM)	32 µg/mL (≈ 50.1 µM)	16 µg/mL (≈ 25.1 µM)	2 µg/mL (≈ 3.13 µM)	8 µg/mL (≈ 12.5 µM)
CCCCCCn1cc(/C=C(\C#N)C(=O)N2CCN(c3cc4c(cc3F)c(=O)c(C(=O)O)cn4CC)CC2)c2ccccc21	16 µg/mL (≈ 26.8 µM)	0.5 µg/mL (≈ 0.837 µM)	32 µg/mL (≈ 53.5 µM)	0.5 µg/mL (≈ 0.837 µM)	2 µg/mL (≈ 3.35 µM)	4 µg/mL (≈ 6.69 µM)	1 µg/mL (≈ 1.67 µM)	0.5 µg/mL (≈ 0.837 µM)	0.5 µg/mL (≈ 0.837 µM)	64 µg/mL (≈ 107 µM)	16 µg/mL (≈ 26.8 µM)
CCn1cc(C(=O)O)c(=O)c2cc(F)c(N3CCN(C(=O)/C(C#N)=C/c4cn(CCCN5CCOCC5)c5ccccc45)CC3)cc21	0.25 µg/mL (≈ 0.39 µM)	1 µg/mL (≈ 1.56 µM)	1 µg/mL (≈ 1.56 µM)	0.25 µg/mL (≈ 0.39 µM)	1 µg/mL (≈ 1.56 µM)	0.25 µg/mL (≈ 0.39 µM)	0.25 µg/mL (≈ 0.39 µM)	2 µg/mL (≈ 3.12 µM)	1 µg/mL (≈ 1.56 µM)	0.25 µg/mL (≈ 0.39 µM)	0.5 µg/mL (≈ 0.78 µM)
CCn1cc(C(=O)O)c(=O)c2cc(F)c(N3CCN(C(=O)/C(C#N)=C/c4cn(CC5CCCCC5)c5ccccc45)CC3)cc21	2 µg/mL (≈ 3.28 µM)	1 µg/mL (≈ 1.64 µM)	32 µg/mL (≈ 52.5 µM)	16 µg/mL (≈ 26.2 µM)	4 µg/mL (≈ 6.56 µM)	1 µg/mL (≈ 1.64 µM)	1 µg/mL (≈ 1.64 µM)	32 µg/mL (≈ 52.5 µM)	1 µg/mL (≈ 1.64 µM)	16 µg/mL (≈ 26.2 µM)	1 µg/mL (≈ 1.64 µM)
C=CCn1cc(C(=O)O)c(=O)c2cc(F)c(N3CCN(C(=O)/C(C#N)=C/c4cn(CC(=O)OCC)c5ccccc45)CC3)cc21	256 µg/mL (≈ 419 µM)	4 µg/mL (≈ 6.54 µM)	0.25 µg/mL (≈ 0.409 µM)	128 µg/mL (≈ 209 µM)	32 µg/mL (≈ 52.3 µM)	16 µg/mL (≈ 26.2 µM)	1 µg/mL (≈ 1.63 µM)	16 µg/mL (≈ 26.2 µM)	1 µg/mL (≈ 1.63 µM)	64 µg/mL (≈ 105 µM)	8 µg/mL (≈ 13.1 µM)
CCn1cc(C(=O)O)c(=O)c2cc(F)c(N3CCN(C(=O)/C(C#N)=C/c4c[nH]c5c(C)cccc45)CC3)cc21	4 µg/mL (≈ 7.58 µM)	1 µg/mL (≈ 1.9 µM)	4 µg/mL (≈ 7.58 µM)	4 µg/mL (≈ 7.58 µM)	2 µg/mL (≈ 3.79 µM)	4 µg/mL (≈ 7.58 µM)	0.5 µg/mL (≈ 0.948 µM)	4 µg/mL (≈ 7.58 µM)	1 µg/mL (≈ 1.9 µM)	4 µg/mL (≈ 7.58 µM)	2 µg/mL (≈ 3.79 µM)
CCn1cc(C(=O)O)c(=O)c2cc(F)c(N3CCN(C(=O)/C(C#N)=C/c4c(C)[nH]c5ccccc45)CC3)cc21	1 µg/mL (≈ 1.9 µM)	0.5 µg/mL (≈ 0.948 µM)	1 µg/mL (≈ 1.9 µM)	2 µg/mL (≈ 3.79 µM)	0.25 µg/mL (≈ 0.474 µM)	0.25 µg/mL (≈ 0.474 µM)	2 µg/mL (≈ 3.79 µM)	1 µg/mL (≈ 1.9 µM)	1 µg/mL (≈ 1.9 µM)	4 µg/mL (≈ 7.58 µM)	1 µg/mL (≈ 1.9 µM)
CCCCCCCCn1cc(/C=C(\C#N)C(=O)N2CCN(c3cc4c(cc3F)c(=O)c(C(=O)O)cn4CC)CC2)c2ccccc21	16 µg/mL (≈ 25.6 µM)	32 µg/mL (≈ 51.1 µM)	1 µg/mL (≈ 1.6 µM)	0.5 µg/mL (≈ 0.799 µM)	4 µg/mL (≈ 6.39 µM)	1 µg/mL (≈ 1.6 µM)	2 µg/mL (≈ 3.2 µM)	1 µg/mL (≈ 1.6 µM)	64 µg/mL (≈ 102 µM)	0.25 µg/mL (≈ 0.4 µM)	8 µg/mL (≈ 12.8 µM)
CCn1cc(C(=O)O)c(=O)c2cc(F)c(N3CCN(C(=O)/C(C#N)=C/c4cn(CC(=O)N5CCOCC5)c5ccccc45)CC3)cc21	1 µg/mL (≈ 1.56 µM)	0.25 µg/mL (≈ 0.39 µM)	1 µg/mL (≈ 1.56 µM)	2 µg/mL (≈ 3.12 µM)	0.5 µg/mL (≈ 0.78 µM)	4 µg/mL (≈ 6.24 µM)	1 µg/mL (≈ 1.56 µM)	8 µg/mL (≈ 12.5 µM)	0.5 µg/mL (≈ 0.78 µM)	2 µg/mL (≈ 3.12 µM)	0.5 µg/mL (≈ 0.78 µM)
CCn1cc(C(=O)O)c(=O)c2cc(F)c(N3CCN(C(=O)/C(C#N)=C/c4c[nH]c5cccc(Cl)c45)CC3)cc21	32 µg/mL (≈ 58.4 µM)	1 µg/mL (≈ 1.82 µM)	8 µg/mL (≈ 14.6 µM)	8 µg/mL (≈ 14.6 µM)	2 µg/mL (≈ 3.65 µM)	2 µg/mL (≈ 3.65 µM)	0.5 µg/mL (≈ 0.912 µM)	1 µg/mL (≈ 1.82 µM)	4 µg/mL (≈ 7.3 µM)	4 µg/mL (≈ 7.3 µM)	2 µg/mL (≈ 3.65 µM)
CCn1cc(C(=O)O)c(=O)c2cc(F)c(N3CCN(C(=O)/C(C#N)=C/c4cn(CC5CCCC5)c5ccccc45)CC3)cc21	0.5 µg/mL (≈ 0.839 µM)	1 µg/mL (≈ 1.68 µM)	8 µg/mL (≈ 13.4 µM)	32 µg/mL (≈ 53.7 µM)	1 µg/mL (≈ 1.68 µM)	2 µg/mL (≈ 3.36 µM)	0.5 µg/mL (≈ 0.839 µM)	16 µg/mL (≈ 26.9 µM)	4 µg/mL (≈ 6.72 µM)	1 µg/mL (≈ 1.68 µM)	16 µg/mL (≈ 26.9 µM)
CCn1cc(C(=O)O)c(=O)c2cc(F)c(N3CCN(C(=O)/C(C#N)=C/c4cn(CC#N)c5ccccc45)CC3)cc21	0.5 µg/mL (≈ 0.905 µM)	0.5 µg/mL (≈ 0.905 µM)	1 µg/mL (≈ 1.81 µM)	2 µg/mL (≈ 3.62 µM)	2 µg/mL (≈ 3.62 µM)	1 µg/mL (≈ 1.81 µM)	0.5 µg/mL (≈ 0.905 µM)	4 µg/mL (≈ 7.24 µM)	2 µg/mL (≈ 3.62 µM)	0.5 µg/mL (≈ 0.905 µM)	1 µg/mL (≈ 1.81 µM)
CCn1cc(C(=O)O)c(=O)c2cc(F)c(N3CCN(C(=O)/C(C#N)=C/c4cn(Cc5ccc(Cl)c(Cl)c5)c5ccccc45)CC3)cc21	2 µg/mL (≈ 2.97 µM)	1 µg/mL (≈ 1.49 µM)	32 µg/mL (≈ 47.6 µM)	4 µg/mL (≈ 5.95 µM)	32 µg/mL (≈ 47.6 µM)	64 µg/mL (≈ 95.2 µM)	1 µg/mL (≈ 1.49 µM)	16 µg/mL (≈ 23.8 µM)	8 µg/mL (≈ 11.9 µM)	64 µg/mL (≈ 95.2 µM)	64 µg/mL (≈ 95.2 µM)
CCn1cc(C(=O)O)c(=O)c2cc(F)c(N3CCN(C(=O)/C(C#N)=C/c4cn(CC5CCC5)c5ccccc45)CC3)cc21	0.25 µg/mL (≈ 0.43 µM)	4 µg/mL (≈ 6.88 µM)	0.5 µg/mL (≈ 0.86 µM)	0.25 µg/mL (≈ 0.43 µM)	0.5 µg/mL (≈ 0.86 µM)	0.25 µg/mL (≈ 0.43 µM)	0.25 µg/mL (≈ 0.43 µM)	0.25 µg/mL (≈ 0.43 µM)	0.5 µg/mL (≈ 0.86 µM)	0.25 µg/mL (≈ 0.43 µM)	0.25 µg/mL (≈ 0.43 µM)
CCOC(=O)Cn1cc(/C=C(\C#N)C(=O)N2CCN(c3cc4c(cc3F)c(=O)c(C(=O)O)cn4Cc3ccccc3)CC2)c2ccccc21	256 µg/mL (≈ 387 µM)	4 µg/mL (≈ 6.05 µM)	0.25 µg/mL (≈ 0.378 µM)	256 µg/mL (≈ 387 µM)	16 µg/mL (≈ 24.2 µM)	256 µg/mL (≈ 387 µM)	2 µg/mL (≈ 3.02 µM)	256 µg/mL (≈ 387 µM)	8 µg/mL (≈ 12.1 µM)	256 µg/mL (≈ 387 µM)	4 µg/mL (≈ 6.05 µM)
CCCCCn1cc(/C=C(\C#N)C(=O)N2CCN(c3cc4c(cc3F)c(=O)c(C(=O)O)cn4CC)CC2)c2ccccc21	4 µg/mL (≈ 6.85 µM)	0.5 µg/mL (≈ 0.857 µM)	8 µg/mL (≈ 13.7 µM)	16 µg/mL (≈ 27.4 µM)	4 µg/mL (≈ 6.85 µM)	8 µg/mL (≈ 13.7 µM)	0.5 µg/mL (≈ 0.857 µM)	32 µg/mL (≈ 54.8 µM)	2 µg/mL (≈ 3.43 µM)	1 µg/mL (≈ 1.71 µM)	2 µg/mL (≈ 3.43 µM)
CCCCCCn1cc(C(=O)O)c(=O)c2cc(F)c(N3CCN(C(=O)/C(C#N)=C/c4cn(CC(=O)OCC)c5ccccc45)CC3)cc21	1 µg/mL (≈ 1.53 µM)	16 µg/mL (≈ 24.4 µM)	0.25 µg/mL (≈ 0.381 µM)	128 µg/mL (≈ 195 µM)	0.5 µg/mL (≈ 0.763 µM)	8 µg/mL (≈ 12.2 µM)	16 µg/mL (≈ 24.4 µM)	64 µg/mL (≈ 97.6 µM)	32 µg/mL (≈ 48.8 µM)	4 µg/mL (≈ 6.1 µM)	8 µg/mL (≈ 12.2 µM)
